Data reported in ChEMBL document CHEMBL3745701, “Bioactive minor components of the total salvianolic acids injection prepared from Salvia miltiorrhiza Bge” (Bioorg Med Chem Lett, 2016).

Assays:
[1] = molecular target: NAD(P)H dehydrogenase [quinone] 1 (Mus musculus) (UniProt Q64669); test: Induction of NQO1 activity in mouse Hepa-1c1c7 cells at 10 uM after 24 hrs by MTT assay relative to control; format: cell-based
[2] = Antioxidant activity assessed as DPPH radical scavenging activity at 2 mM after 30 mins; format: physicochemical; conditions: 0.5 h, 2000 µM
[3] = Cytotoxicity against mouse Hepa-1c1c7 cells assessed as cell viability at 10 uM after 24 hrs by crystal violet staining-based assay; conditions: read-out: Activity
[4] = Antioxidant activity assessed as DPPH radical scavenging activity at 0.5 mM after 30 mins; format: physicochemical; conditions: 0.5 h, 500 µM
[5] = Antioxidant activity assessed as DPPH radical scavenging activity at 0.125 mM after 30 mins; format: physicochemical; conditions: 0.5 h, 125 µM
[6] = Cytotoxicity against mouse Hepa-1c1c7 cells assessed as cell viability at 20 uM after 24 hrs by crystal violet staining-based assay; conditions: read-out: Activity
[7] = Antioxidant activity assessed as DPPH radical scavenging activity at 0.05 mM after 30 mins; format: physicochemical; conditions: 0.5 h, 50 µM
[8] = molecular target: NAD(P)H dehydrogenase [quinone] 1 (Mus musculus) (UniProt Q64669); test: Induction of NQO1 activity in mouse Hepa-1c1c7 cells at 20 uM after 24 hrs by MTT assay relative to control; format: cell-based

Chain of NAD(P)H dehydrogenase [quinone] 1 (Mus musculus) (Q64669 whole entry): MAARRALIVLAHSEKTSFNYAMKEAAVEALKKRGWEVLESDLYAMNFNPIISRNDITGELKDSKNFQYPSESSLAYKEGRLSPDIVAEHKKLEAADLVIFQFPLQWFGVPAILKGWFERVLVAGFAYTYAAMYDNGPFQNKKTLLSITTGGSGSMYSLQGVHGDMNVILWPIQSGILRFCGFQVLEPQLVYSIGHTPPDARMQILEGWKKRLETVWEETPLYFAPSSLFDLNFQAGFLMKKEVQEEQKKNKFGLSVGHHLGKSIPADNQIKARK

fold change (FC) [1]	inhibition (INH) [2]	inhibition (INH) [4]	inhibition (INH) [5]	inhibition (INH) [7]	fold change (FC) [8]	SMILES	viability at 24 h, 10 µM [3]	viability at 24 h, 20 µM [6]
–	74.9%	58.5%	31.8%	26%	–	O=C1O[C@H]([C@@H](O)CO)C(O)=C1O [ASCORBIC ACID]	–	–
2.9	–	–	–	–	–	O=c1cc(-c2ccc(Br)cc2)oc2ccccc12	109%	–

Second part, the compound before the results:

SMILES	fold change (FC) [1]	inhibition (INH) [2]	inhibition (INH) [4]	inhibition (INH) [5]	inhibition (INH) [7]	fold change (FC) [8]	viability at 24 h, 10 µM [3]	viability at 24 h, 20 µM [6]
O=C(/C=C/c1ccc(O)c2c1[C@@H](C(=O)O[C@@H](Cc1ccc(O)c(O)c1)C(=O)O)[C@H](c1ccc(O)c(O)c1)O2)O[C@@H](Cc1ccc(O)c(O)c1)C(=O)O	1.2	84.3%	77.1%	64.9%	42.1%	1.7	97%	82%
O=C(/C=C/c1ccc(O)c2c1[C@@H](C(=O)O[C@H](Cc1ccc(O)c(O)c1)C(=O)O)[C@H](c1ccc(O)c(O)c1)O2)O[C@H](Cc1ccc(O)c(O)c1)C(=O)O	1	84.7%	64.1%	60.2%	37.6%	1.4	85%	79%
O=C(/C=C/c1ccc(O)c(O)c1/C(=C/c1ccc(O)c(O)c1)C(=O)O[C@@H](Cc1ccc(O)c(O)c1)C(=O)O)O[C@@H](Cc1ccc(O)c(O)c1)C(=O)O	1.4	53.6%	14.8%	8.1%	4.4%	2.6	94%	88%
